The nature of series [1]: Stability in citric acid buffer at pH 4. It is filed as physicochemical. As to conditions: 37° C., peak area. On the procedure: Method: 0.15 mg of the test compound were solved in 0.1 ml dimethylsulfoxide and 0.4 ml acetonitrile. For complete dissolution the HPLC vial with the sample solution was shaken and sonicated. Then 1.0 ml of the respective buffer solution (Citrate buffer pH 4; citric acid/sodium hydroxide/sodium chloride Fluka 33643) was added and the sample was vortexed. The sample solution was analysed by HPLC to determine the amount of the test compound and up to two byproducts at a particular time (0, 1, 2 4, 24 hrs) over a period of 24 h at 37° C. t(0) values resulted from a sample immediately taken after vortexing with buffer at RT. The peak areas (in percentage) were used for quantification.
LC & LC/MS purity analysis: The starting material was analyzed for purity by LC; the 24 h sample was additionally analyzed by LC/MS (Waters Quattro Micro).

Series [2] deals with HT29 cell line. As to the kind of experiment: Cytotoxicity in vitro (MTT) in the presence and absence of elastase, HT29. Type of series: cell-based. As to conditions: 72 h. On the procedure: (§1) Cultivation of cells was performed according to standard procedures with the media recommended by the provider. The cells in a total volume of 100 μL were seeded in a 96-well plate with white bottom (#3610). After a 24 h incubation period at 37° C. and 5% CO2, the medium was changed by adding 90 μL fresh medium. The treatment starts by adding the test compound to the cells in 10 μl of culture medium. Concentrations from 10^−5 M to 10^−13 M in triplicates were chosen followed by an incubation at 37° C. and 5% carbon dioxide. One set of samples were only treated with the test compound whereas to an otherwise identically treated second set of samples also 10 nM elastase was pipetted. After 72 h. the proliferation is detected using the MTT assay (ATCC). At the end of the incubation period the MTT reagent is added to all samples for 4 h, followed by lysis of the cells overnight by addition of the detergent. The dye formed was detected at 570 nm. The proliferation of cells which were not treated with test substance but were otherwise identically treated was defined as the 100% value. (FIG. 1 and table 4).

Series [3] concerns NCI-H69 xenograft (lung cancer). Description: In vivo xenotransplantation study, NCI-H69. The following applies: NCI-H69, 40 mg/kg i.v., 3 days on, 4 days off, 3 cycles; mean tumor area. Set-up: species or system mice. As to the method: (§2) For this purpose, immunocompromised mice were implanted subcutaneously with tumor cells or tumor fragments. […] Intravenous treatments were performed on three consecutive days once daily followed by four days drug holiday without treatments. The tumor size and the body weight were determined at least weekly. The tumor area was detected by means of an electronic caliper [length (mm)×width (mm)]. The experimental groups were ended when the group reached the pre-determined ethical endpoint based on German and European animal welfare regulations. In vivo anti-tumor efficacy is presented as T/C ratio of mean tumor area measured for treatment and control group on the last day at which the vehicle control remained in study (Treatment/Control; mean tumor area of treatment group/mean tumor area of control group. A compound having a T/C below 0.5 is defined as active (i.e., effective). Statistical analysis was assessed using SigmaStat software. A one-way analysis of variance was performed and differences to the control were compared by a pair-wise comparison procedure (Dunn's method).

Series [4] concerns the target T1, αvβ3 receptor (Homo sapiens, UniProt P05106+P06756).
T1 construct: αvβ3 from human A375 cells was purified analogously to a procedure described by Wong et al; endogenous in cells; host or cells: human A375 cells (receptor purified from the cells)
As to the kind of experiment: αvβ3 binding test (echistatin SPA). As to the method: αvβ3 from human A375 cells was purified analogously to a procedure described by Wong et al. in Molecular Pharmacology 50, 529-537 (1996). In each case, 10 μL of αvβ3 (5 ng) in TBS PH 7.6, 2 mM CaCl2. 1 mM MgCl2. 1% n-octylglucopyranoside (Sigma): 10 μL of test substance in TBS pH 7.6. 0.1% DMSO and 45 μL of TBS pH 7.6. 2 mM CaCl2, 1 mM MgCl2, 1 mM MnCl2 were incubated at room temperature for 1 h. In each case, 25 μL of WGA SPA beads (Amersham, 4 mg/ml) and 10 μL of echistatin (0.1 μCi, Amersham, chloramine-T labelled) were then added. After 16 h at room temperature, the samples were measured in a scintillation measuring apparatus (Wallac 1450).

Series [5] is described as follows: Solubility in vehicles. Type of series: physicochemical. As to conditions: room temperature (25° C.). On the procedure: Method: For each vehicle to be tested. 0.5-1.0 mg test compound were weighed into a 2 ml Eppendorf vial. 2-3 Glas perls (Ø 3 mm) and 1.0 ml vehicle were added. The vial was shaken at 1400 rpm for 24 hrs at room temperature (25° C.). After this time period the supernatant (approx. 230 μl was transferred to a centrifuge tube. After 30 min at 42 000 rpm the solute was transferred to another vial and diluted with DMSO (1:5 and 1:50). These two dilutions were analyzed by HPLC (read out: area)
• Eluent A: 1 ml Trifluoro acetic acid/L water • Eluent B: 1 ml Trifluoro acetic acid/L acetonitrile • Gradient:
• Column: ZORBAX Extend-C18, 3.0×50 mm, 3, 5 μm • Oven temperature: 30° C. • Detection: 214 and 254 nm • Injection volume: 20 μl
For quantification a calibration curve was obtained from DMSO solution of the test compound ([…], 20 μg/ml and 2.5 μg/ml) by employing the same HPLC method.

The test system of series [6] is SW-480 xenograft (colon cancer). As to the kind of experiment: In vivo xenotransplantation study, SW-480. As to conditions: SW-480, 36 mg/kg i.v., 3 days on, 4 days off, 3 cycles; mean tumor area. Set-up: species or system mice. On the procedure: as §2
For series [7], the system named is 786-O xenograft (renal cancer). Description: In vivo xenotransplantation study, 786-O. Set-up: species or system mice. As to conditions: 36 mg/kg i.v., 3 days on, 4 days off, 3 cycles, mean tumor area. As to the method:
as §2

In series [8] the test system is MX1 xenograft (breast cancer). As to the kind of experiment: In vivo xenotransplantation study, MX1. As to conditions: MX1, 36 mg/kg i.v., 3 days on, 4 days off, 3 cycles; mean tumor area. Set-up: species or system mice. As to the method: as §2
For series [9], the system named is 786-O cell line. As to the kind of experiment: Cytotoxicity in vitro (MTT) in the presence and absence of elastase, 786-O. It is filed as cell-based. On the procedure: as §1
Series [10] in a line: Plasma stability in rat plasma. The following applies: 37° C. It is filed as in vitro ADME. As to the method: For complete dissolution the HPLC vial was shaken and treated with ultrasound. 500 μl of this solution were added to 0.5 mL of rat plasma with vortexing at a temperature of 37° C. Aliquots (10 μL each) were taken at respective time points and analyzed by HPLC to determine the amount of the test compound. All data is given as percent area of the initial compound at t0.

Structures are written as SMILES. Where two headings read alike, the source gives them in different places. Marks after values point to notes of the source that are not given here.

The text below walks through data of patent US20240325553A1, “CYTOSTATIC CONJUGATES WITH INTEGRIN LIGANDS” (priority 2018, published 2024).

The solubility is the concentration that dissolves in the medium under given conditions.

T1 sequence (P06756 31-889 limits assumed): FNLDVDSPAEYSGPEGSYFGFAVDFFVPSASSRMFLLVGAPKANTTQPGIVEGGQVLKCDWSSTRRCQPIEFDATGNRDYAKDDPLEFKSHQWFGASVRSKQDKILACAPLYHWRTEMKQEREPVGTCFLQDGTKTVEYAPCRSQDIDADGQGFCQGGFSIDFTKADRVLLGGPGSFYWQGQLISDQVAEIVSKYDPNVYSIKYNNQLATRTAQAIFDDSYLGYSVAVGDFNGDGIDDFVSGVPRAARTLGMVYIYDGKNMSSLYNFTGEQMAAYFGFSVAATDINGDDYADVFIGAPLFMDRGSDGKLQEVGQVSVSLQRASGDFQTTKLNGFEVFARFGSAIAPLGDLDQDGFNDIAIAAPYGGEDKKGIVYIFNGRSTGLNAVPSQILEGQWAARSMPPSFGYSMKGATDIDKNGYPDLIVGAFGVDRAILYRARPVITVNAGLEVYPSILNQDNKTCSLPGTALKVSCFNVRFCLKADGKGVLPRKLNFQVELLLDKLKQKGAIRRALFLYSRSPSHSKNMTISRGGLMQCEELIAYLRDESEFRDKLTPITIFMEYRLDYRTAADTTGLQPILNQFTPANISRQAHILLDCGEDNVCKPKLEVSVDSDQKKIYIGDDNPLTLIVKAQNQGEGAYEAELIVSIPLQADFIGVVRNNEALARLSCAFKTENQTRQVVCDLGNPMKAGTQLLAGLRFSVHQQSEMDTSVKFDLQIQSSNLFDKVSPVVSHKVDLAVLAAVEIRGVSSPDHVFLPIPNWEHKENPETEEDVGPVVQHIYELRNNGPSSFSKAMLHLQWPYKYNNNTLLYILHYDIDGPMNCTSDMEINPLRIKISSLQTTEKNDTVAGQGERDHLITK
T1 sequence (P06756 891-1048 partner limits assumed): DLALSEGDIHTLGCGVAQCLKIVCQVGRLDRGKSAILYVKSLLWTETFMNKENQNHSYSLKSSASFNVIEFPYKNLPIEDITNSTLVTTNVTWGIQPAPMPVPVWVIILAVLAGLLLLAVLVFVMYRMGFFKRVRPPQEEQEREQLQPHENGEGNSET
T1 sequence (P05106 27-788): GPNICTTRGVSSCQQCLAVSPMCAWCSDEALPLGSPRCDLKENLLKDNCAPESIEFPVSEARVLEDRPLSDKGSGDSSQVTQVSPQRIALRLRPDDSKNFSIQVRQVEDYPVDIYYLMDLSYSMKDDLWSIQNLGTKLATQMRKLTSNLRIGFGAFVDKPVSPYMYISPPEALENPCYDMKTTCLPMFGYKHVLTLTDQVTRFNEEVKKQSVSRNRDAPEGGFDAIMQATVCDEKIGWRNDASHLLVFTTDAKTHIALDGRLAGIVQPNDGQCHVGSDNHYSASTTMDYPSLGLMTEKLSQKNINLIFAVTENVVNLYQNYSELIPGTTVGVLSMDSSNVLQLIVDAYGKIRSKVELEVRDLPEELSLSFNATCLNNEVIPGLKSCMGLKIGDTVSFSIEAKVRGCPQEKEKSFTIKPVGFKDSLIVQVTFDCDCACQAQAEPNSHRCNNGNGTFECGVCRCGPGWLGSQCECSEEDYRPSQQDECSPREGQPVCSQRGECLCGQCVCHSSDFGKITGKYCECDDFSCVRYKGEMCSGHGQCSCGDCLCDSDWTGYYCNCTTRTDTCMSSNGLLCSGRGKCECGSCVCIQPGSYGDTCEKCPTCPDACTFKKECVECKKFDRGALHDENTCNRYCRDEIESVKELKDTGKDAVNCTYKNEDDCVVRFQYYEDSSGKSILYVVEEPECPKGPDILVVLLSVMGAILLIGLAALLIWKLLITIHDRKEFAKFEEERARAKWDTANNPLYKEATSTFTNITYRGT

Turning to `CCCNC(=O)Nc1cccc(S(=O)(=O)Nc2cccc([C@@H](CC(=O)[O-])NC(=O)Nc3ccc(NC(=O)NCCOCCOCCOCCC(=O)N[C@@H](CC(=O)[O-])C(=O)N4CCC[C@H]4C(=O)N[C@H](C(=O)O[C@]4(CC)C(=O)OCc5c4cc4n(c5=O)Cc5c-4nc4ccccc4c5CC)C(C)C)cc3)c2)c1.[Na+].[Na+]` [Example 1, disodium (4S)-4,11-diethyl-3,14-dioxo-3,4,12,14-tetrahydro-1H-pyrano[3′,4′: 6,7]indolizino [1,2-b]quinolin-4-yl 1-{(2S)-2-(carboxylatomethyl)-17-[4-({[(1R)-2-carboxylato-1-{3-[({3-[(propyl-carbamoyl)amino]phenyl}sulfonyl)amino]phenyl}ethyl]carbamoyl}amino)anilino]-4,17-dioxo-7,10,13-trioxa-3,16-diazaheptadecan-1-oyl}-L-prolyl-L-valinate], the “Stability in citric acid buffer at pH 4, 4h” value in series [1] (4 h) was 100%. Moreover, the “Stability in citric acid buffer at pH 4, 24h” value in [1] (24 h) stood at 95%. Also, the IC50 in [2] (10 nM elastase, read-out: HT29 cell line IC50 w elastase) was determined as 8.7 nM; in series [2] (without elastase, read-out: HT29 cell line IC50 w/o elastase), 245 nM; in series [4] it was 29 nM; in series [9] (72 h, MTT, 10 nM elastase, read-out: 786-O cell line IC50 w elastase), 1.1 nM; in series [9] (72 h, MTT, without elastase, read-out: 786-O cell line IC50 w/o elastase), 188 nM; in series [9] (side by side comparison, elastase with higher enzymatic activity used, read-out: 786-O cell line IC50 w elastase), 0.17 nM. The IC50 in [9] (side by side comparison, without elastase, read-out: 786-O cell line IC50 w/o elastase) stood at 28 nM. For the same compound, the T/C was 0.06* in series [3], 0.1* in [6], 0.19* in series [7] and 0.03* in series [8]. Moreover, the solubility at 24 h in [5] (read-out: Solubility in 0.9% NaCl in H2O) is 465 µg/mL; in [5] (read-out: Solubility in 5% D-Mannitol) it was more than 500 µg/mL. The compound further returned a Specificity factor in series [9] (786-O, IC50 w/o elastase versus w elastase) of 165. For the same compound, the “stable in rat plasma for” value in series [10] was more than 24 h.
